This test deals with HL-60 cells. Put plainly: TPA + low doses of Ara-C, HL-60 differentiation. Type of test: cell-based, human. Conditions: Ara-C alone, low dose 100 ng/ml. From the text:
(2) TPA+Low Doses of Ara-C:

Turning to `Nc1ccn([C@@H]2O[C@H](CO)[C@@H](O)[C@@H]2O)c(=O)n1` [Ara-C, cytarabine, reference compound], the HL-60 cell differentiation result was “could induce cell differentiation”.

Source of the values: patent US6063814A, “Phorbol esters as anti-neoplastic and white blood cell elevating agents” (priority 1997, dated 2000).
